Data as given in US6914045B2, “Glycopeptide antibiotics” (Wyeth Holdings Corporation, priority 2001, dated 2005).
In brackets after ≈: the same amount, converted by molar mass.

Assays:
Test in all cases: in vitro antibacterial evaluation, MIC by broth dilution
Type in all cases: cell-based
Staphylococcus sp. = conditions: broth dilution, 18 hours at 35° C.; for MIC Staphylococcus aureus (GC 1131): strain GC 1131
Procedure, shortened: (§1)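 Broth dilution per NCCLS standard M7-A2 in Muller-Hinton II […], with an inoculum of 5×10^5 CFU/mL and antibiotic spanning 64-0.06 μg/mL. The MIC is the lowest concentration that inhibits growth of the organism.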

Escherichia coli = system: Escherichia coli
Procedure, shortened: as §1

Streptococcus sp. = conditions: broth dilution, 18 hours at 35° C.; for MIC Streptococcus pneumoniae (ATCC 6301): strain ATCC 6301; for MIC Streptococcus pneumoniae (GC 1894): strain GC 1894; for MIC Streptococcus pyogenes (GC 4563): strain GC 4563; for MIC Streptococcus agalactiae (GC 4564): strain GC 4564; for MIC Streptococcus pneumoniae (GC 4565): strain GC 4565
Procedure, shortened: as §1

Enterococcus sp. = conditions: broth dilution, 18 hours at 35° C.; for MIC Enterococcus faecalis (ATCC 29212): strain ATCC 29212; for MIC Enterococcus faecalis (GC 2242): strain GC 2242; for MIC Enterococcus faecium (GC 2243): strain GC 2243; for MIC Enterococcus faecalis (GC 2691): strain GC 2691; for MIC Enterococcus faecalis (GC 3059): strain GC 3059; for MIC Enterococcus faecalis (GC 4552): strain GC 4552; for MIC Enterococcus faecalis (GC 4553): strain GC 4553; for MIC Enterococcus faecalis (GC 4554): strain GC 4554; for MIC Enterococcus faecium (GC 4556): strain GC 4556; for MIC Enterococcus faecium (GC 4557): strain GC 4557; for MIC Enterococcus avium (GC 4558): strain GC 4558; for MIC Enterococcus faecalis (GC 6189): strain GC 6189
Procedure, shortened: as §1

## CC(c1ccccc1)C1NC(=O)CNC(=O)C(CO)NC(=O)C(C(O)C2CNC(=N)N2C2OC(CO)C(O)C(O)C2O)NC(=O)C(C(O)C2CNC(=N)N2)NC(=O)C(Cc2ccc(OC3OC(CO)C(OC4OC5COC(c6ccc(C=Cc7ccccc7)cc6)OC5C(O)C4O)C(O)C3O)cc2)NC1=O (centres unmarked) [Example 172]
Staphylococcus sp.; inoculum 5×10^5 CFU/mL
  MIC Staphylococcus aureus (GC 1131): 8 µg/mL (≈ 5.39 µM)
Staphylococcus sp.; strain ATCC 29213
  MIC Staphylococcus aureus (ATCC 29213): 4 µg/mL (≈ 2.69 µM)
Staphylococcus sp.
  MIC Staphylococcus aureus (GC 1131): 8 µg/mL (≈ 5.39 µM)
Staphylococcus sp.; strain GC 3051
  MIC Staphylococcus aureus (GC 3051): 4 µg/mL (≈ 2.69 µM)
Staphylococcus sp.; strain GC 3053
  MIC Staphylococcus aureus (GC 3053): 4 µg/mL (≈ 2.69 µM)
Staphylococcus sp.; strain GC 4541
  MIC Staphylococcus aureus (GC 4541): 4 µg/mL (≈ 2.69 µM)
Staphylococcus sp.; strain GC 4542
  MIC Staphylococcus aureus (GC 4542): 2 µg/mL (≈ 1.35 µM)
Staphylococcus sp.; strain GC 4543
  MIC Staphylococcus aureus-SMITH (GC 4543): 8 µg/mL (≈ 5.39 µM)
Staphylococcus sp.; strain GC 4544
  MIC Staphylococcus aureus (GC 4544): 8 µg/mL (≈ 5.39 µM)
Staphylococcus sp.; strain GC 4545
  MIC Staphylococcus aureus (GC 4545): 4 µg/mL (≈ 2.69 µM)
Staphylococcus sp.; strain GC 4546
  MIC Staphylococcus haemolyticus (GC 4546): 8 µg/mL (≈ 5.39 µM)
Staphylococcus sp.; strain GC 4547
  MIC Coagulase Negative Staphylococcus (GC 4547): 8 µg/mL (≈ 5.39 µM)
Staphylococcus sp.; strain GC 4548
  MIC Coagulase Negative Staphylococcus (GC 4548): 2 µg/mL (≈ 1.35 µM)
Staphylococcus sp.; strain GC 4549
  MIC Coagulase Negative Staphylococcus (GC 4549): 2 µg/mL (≈ 1.35 µM)
Staphylococcus sp.; strain GC 4551
  MIC Coagulase Negative Staphylococcus (GC 4551): 4 µg/mL (≈ 2.69 µM)
Staphylococcus sp.; strain GC 6257
  MIC Coagulase Negative Staphylococcus (GC 6257): 2 µg/mL (≈ 1.35 µM)
Escherichia coli; strain ATCC 25922, 18 hours at 35° C.
  MIC Escherichia coli (ATCC 25922): >64 µg/mL
Escherichia coli; strain GC 4559, 18 hours at 35° C.
  MIC Escherichia coli (GC 4559): >64 µg/mL
Escherichia coli; strain GC 4560, 18 hours at 35° C.
  MIC Escherichia coli (GC 4560): 2 µg/mL (≈ 1.35 µM)
Streptococcus sp.; inoculum 5×10^5 CFU/mL
  MIC Streptococcus pneumoniae (ATCC 6301): <0.06 µg/mL
  MIC Streptococcus pneumoniae (GC 1894): <0.06 µg/mL
  MIC Streptococcus pyogenes (GC 4563): 0.12 µg/mL (≈ 0.0808 µM)
  MIC Streptococcus agalactiae (GC 4564): <0.06 µg/mL
  MIC Streptococcus pneumoniae (GC 4565): <0.06 µg/mL
Streptococcus sp.
  MIC Streptococcus pneumoniae (ATCC 6301): <0.06 µg/mL
  MIC Streptococcus pneumoniae (GC 1894): <0.06 µg/mL
  MIC Streptococcus pyogenes (GC 4563): 0.12 µg/mL (≈ 0.0808 µM)
  MIC Streptococcus agalactiae (GC 4564): <0.06 µg/mL
  MIC Streptococcus pneumoniae (GC 4565): <0.06 µg/mL
Enterococcus sp.; inoculum 5×10^5 CFU/mL
  MIC Enterococcus faecalis (ATCC 29212): 8 µg/mL (≈ 5.39 µM)
  MIC Enterococcus faecalis (GC 2242): 4 µg/mL (≈ 2.69 µM)
  MIC Enterococcus faecium (GC 2243): 8 µg/mL (≈ 5.39 µM)
  MIC Enterococcus faecalis (GC 2691): 4 µg/mL (≈ 2.69 µM)
  MIC Enterococcus faecalis (GC 3059): 8 µg/mL (≈ 5.39 µM)
  MIC Enterococcus faecalis (GC 4552): 8 µg/mL (≈ 5.39 µM)
  MIC Enterococcus faecalis (GC 4553): 4 µg/mL (≈ 2.69 µM)
  MIC Enterococcus faecalis (GC 4554): 4 µg/mL (≈ 2.69 µM)
  MIC Enterococcus faecium (GC 4556): 8 µg/mL (≈ 5.39 µM)
  MIC Enterococcus faecium (GC 4557): 8 µg/mL (≈ 5.39 µM)
  MIC Enterococcus avium (GC 4558): 4 µg/mL (≈ 2.69 µM)
  MIC Enterococcus faecalis (GC 6189): 2 µg/mL (≈ 1.35 µM)
Enterococcus sp.
  MIC Enterococcus faecalis (ATCC 29212): 8 µg/mL (≈ 5.39 µM)
  MIC Enterococcus faecalis (GC 2242): 4 µg/mL (≈ 2.69 µM)
  MIC Enterococcus faecium (GC 2243): 8 µg/mL (≈ 5.39 µM)
  MIC Enterococcus faecalis (GC 2691): 4 µg/mL (≈ 2.69 µM)
  MIC Enterococcus faecalis (GC 3059): 8 µg/mL (≈ 5.39 µM)
  MIC Enterococcus faecalis (GC 4552): 8 µg/mL (≈ 5.39 µM)
  MIC Enterococcus faecalis (GC 4553): 4 µg/mL (≈ 2.69 µM)
  MIC Enterococcus faecalis (GC 4554): 4 µg/mL (≈ 2.69 µM)
  MIC Enterococcus faecium (GC 4556): 8 µg/mL (≈ 5.39 µM)
  MIC Enterococcus faecium (GC 4557): 8 µg/mL (≈ 5.39 µM)
  MIC Enterococcus avium (GC 4558): 4 µg/mL (≈ 2.69 µM)
  MIC Enterococcus faecalis (GC 6189): 2 µg/mL (≈ 1.35 µM)
